Test results reported in patent publication EP4737450A1 (Longwood Pharmaceuticals (Hangzhou) Co., Ltd, priority 2023, dated 2025).
Where two headings read alike, the source gives them in different places.

Columns and labels:
KLK1 = KLK1 (Homo sapiens, UniProt P06870); assay: Inhibitory activity against KLK1 in vitro (biochemical assay)
Excerpt: Test Example 1. Test of the inhibitory activities of the compounds of the present invention against plasma kallikrein (PKa), KLK1 and FXIa in vitro. […]

FXIa = FXIa (Homo sapiens, UniProt P03951); assay: Inhibitory activity against FXIa in vitro (biochemical assay)
Sequence of FXIa (P03951 388-625 limits assumed): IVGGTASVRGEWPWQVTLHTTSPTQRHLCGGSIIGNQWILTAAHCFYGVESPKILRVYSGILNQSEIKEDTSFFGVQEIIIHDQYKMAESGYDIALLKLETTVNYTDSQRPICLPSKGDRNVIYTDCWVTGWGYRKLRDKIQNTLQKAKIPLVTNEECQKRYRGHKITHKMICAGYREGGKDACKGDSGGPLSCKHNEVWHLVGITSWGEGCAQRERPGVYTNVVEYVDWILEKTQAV
Sequence of FXIa (P03951 19-387 partner limits assumed): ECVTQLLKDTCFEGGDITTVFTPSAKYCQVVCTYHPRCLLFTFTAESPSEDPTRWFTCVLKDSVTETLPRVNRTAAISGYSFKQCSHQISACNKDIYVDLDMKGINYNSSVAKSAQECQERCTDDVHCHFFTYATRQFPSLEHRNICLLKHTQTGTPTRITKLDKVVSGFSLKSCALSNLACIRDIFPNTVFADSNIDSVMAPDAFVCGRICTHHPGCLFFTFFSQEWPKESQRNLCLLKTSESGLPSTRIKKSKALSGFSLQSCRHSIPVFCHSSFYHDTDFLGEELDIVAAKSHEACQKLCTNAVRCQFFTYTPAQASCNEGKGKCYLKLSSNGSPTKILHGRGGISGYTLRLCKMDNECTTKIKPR
Description: Test Example 1. Test of the inhibitory activities of the compounds of the present invention against plasma kallikrein (PKa), KLK1 and FXIa in vitro.
PKK (R & D, Cat # 2497-SE) and Pro-Phe-Arg-AMC (Nanjing Peptide, Cat # NJP23946) solutions were prepared in reaction buffer (50 mM Tris-HCl, pH 7.5, 250 mM NaCl). The final concentrations of enzyme protein and Pro-Phe-Arg-AMC in the reaction mixture were 10 nM and 60 µM, respectively. The starting concentration of the positive reference substance Avoralstat was 100 nM, 3-fold dilution, 10 + 0 dose. 0.05 µL of compound in 100% DMSO was delivered to a 384-well plate by an acoustic liquid delivery technique (Echo665; nanoliter range). Compound duplex test. 5 µL of 2 × enzyme solution was transferred to a 384 reaction plate and centrifuged at 1000 rpm for 1 minute, incubated at 25°C for 15 minutes; 5 µL of 2 × Pro-Phe-Arg-AMC solution was transferred to a 384 reaction plate, centrifuged at 1000 rpm for 1 minute, incubated at 25°C for 3 hours. […] IC50 values and nonlinear regression curve fitting were obtained using GraphPad Prism software.

plasma kallikrein (PKa) = molecular target: T1, plasma kallikrein (PKa) (Homo sapiens, UniProt P03952); assay: Inhibitory activity against plasma kallikrein in vitro (fluorescence intensity enzyme assay, Pro-Phe-Arg-AMC substrate); assay type: biochemical; conditions: Pro-Phe-Arg-AMC substrate
T1 construct: purchased R & D 2497-SE
T1 sequence (P03952 391-638 limits assumed): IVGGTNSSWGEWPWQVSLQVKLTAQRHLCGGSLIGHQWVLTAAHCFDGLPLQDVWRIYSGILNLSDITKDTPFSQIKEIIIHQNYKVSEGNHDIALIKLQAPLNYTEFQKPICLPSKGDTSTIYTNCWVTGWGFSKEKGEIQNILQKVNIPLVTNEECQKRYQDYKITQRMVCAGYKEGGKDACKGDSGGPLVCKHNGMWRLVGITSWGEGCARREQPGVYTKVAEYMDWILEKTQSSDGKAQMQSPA
T1 sequence (P03952 20-390 partner limits assumed): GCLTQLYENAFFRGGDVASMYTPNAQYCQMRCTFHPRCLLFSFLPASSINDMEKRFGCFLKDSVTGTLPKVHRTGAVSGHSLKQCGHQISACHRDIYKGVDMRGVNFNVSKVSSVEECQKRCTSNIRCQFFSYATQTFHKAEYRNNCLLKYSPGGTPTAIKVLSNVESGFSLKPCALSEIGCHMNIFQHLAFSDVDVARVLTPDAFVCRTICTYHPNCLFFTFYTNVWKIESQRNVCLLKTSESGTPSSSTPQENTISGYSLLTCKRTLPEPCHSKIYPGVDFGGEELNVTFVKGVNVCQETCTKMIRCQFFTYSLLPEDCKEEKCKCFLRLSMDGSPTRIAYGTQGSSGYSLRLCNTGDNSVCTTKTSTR
Method in brief: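 Fluorescence intensity enzyme assay with 10 nM enzyme and 60 µM Pro-Phe-Arg-AMC (final concentrations). Compounds in DMSO, tested in duplicate over a dose series. IC50 from nonlinear regression curve fitting.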

[1] = plasma kallikrein enzyme assay, read-out: PKa IC50

Sequence of KLK1 (P06870 25-262, species assumed): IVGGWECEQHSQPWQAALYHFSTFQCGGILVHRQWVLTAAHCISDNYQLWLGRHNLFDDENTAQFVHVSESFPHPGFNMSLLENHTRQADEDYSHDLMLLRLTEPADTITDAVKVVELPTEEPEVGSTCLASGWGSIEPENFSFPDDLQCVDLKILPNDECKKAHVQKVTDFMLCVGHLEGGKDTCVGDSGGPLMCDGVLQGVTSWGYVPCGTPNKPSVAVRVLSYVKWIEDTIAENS

Row | SMILES | IC50 (KLK1; values given in µM) | IC50 (FXIa; values given in µM) | IC50 (plasma kallikrein (PKa); [1]) | IC50 (KLK1; values in nM) | IC50 (FXIa; values in nM) | IC50 (plasma kallikrein (PKa); PKa IC50, plasma kallikrein enzyme assay)
1 | Cc1cc(N)nc(C)c1CNC(=O)c1ccc(Cc2ccc3ncc(Cl)cc3c2)s1 [Compound 3, N-((6-amino-2,4-dimethylpyridin-3-yl)methyl)-5-((3-chloroquinolin-6-yl)methyl)thiophene-2-carboxamide] |  |  | 9.27 nM | < 0.5 µM | < 0.5 µM | 
2 | COCc1nn(Cc2ccc3ncc(Cl)cc3c2)cc1C(=O)NCc1c(C)cc(N)nc1C [Compound 5, N-((6-amino-2,4-dimethylpyridin-3-yl)methyl)-1-((3-chloroquinolin-6-yl)methyl)-3-(methoxymethyl)-1H-pyrazole-4-carboxamide] |  |  | 0.6 nM | < 0.5 µM | < 0.5 µM | 
3 | Cc1cc(N)nc(C)c1CNC(=O)c1cn(Cc2cn3cc(C4CC4)ccc3n2)nn1 [Compound 6, N-((6-amino-2,4-dimethylpyridin-3-yl)methyl)-1-(6-cyclopropylimidazo[1,2-a]pyridin-2-yl)methyl-1H-1,2,3-triazole-4-carboxamide] |  |  | 0.032 nM | < 0.5 µM | < 0.5 µM | 
4 | Cc1cc(N)nc(C)c1CNC(=O)c1cnn(Cc2ccc(N3CC4C(C3)C4(F)F)cc2C#N)c1 (stereo not drawn) [Compound 7, N-((6-amino-2,4-dimethylpyridin-3-yl)methyl)-1-(2-cyano-4-(6,6-difluoro-3-azabicyclo[3.1.0]hexan-3-yl)benzyl)-1H-pyrazole-4-carboxamide] | > 10 µM | > 10 µM | < 0.051 nM |  |  | 
5 | N#Cc1cc(N2CC3C(C2)C3(F)F)ccc1Cn1cc(C(=O)NCc2ccc(C(=N)N)cc2)cn1 (stereo not drawn) [Compound 8] |  |  | 1.22 nM | < 0.5 µM | < 0.5 µM | 
6 | Cc1cc(N)nc(C)c1CNC(=O)c1cn(Cc2ccc3ncc(Cl)cc3c2)nn1 [Compound 9, N-((6-amino-2,4-dimethylpyridin-3-yl)methyl)-1-(3-chloroquinolin-6-yl)methyl-1H-1,2,3-triazole-4-carboxamide] |  |  | 0.406 nM | < 0.5 µM | < 0.5 µM | 
7 | Cc1cc(N)nc(C)c1CNC(=O)c1cnn(Cc2ccc3ncc(Cl)cc3c2)c1 [Compound 10, N-((6-amino-2,4-dimethylpyridin-3-yl)methyl)-1-((3-chloroquinolin-6-yl)methyl)-1H-pyrazole-4-carboxamide] | > 10 µM | > 10 µM | 0.132 nM |  |  | 
8 | N=C(N)c1ccc(CNC(=O)c2cnn(Cc3ccc(Cn4ccccc4=O)cc3)c2)cc1 [Compound 12] | > 10 µM | > 10 µM | 1.62 nM |  |  | 
9 | Cc1cc(N)nc(C)c1CNC(=O)c1cc(Cc2ccc(Cn3ccccc3=O)cc2)ccn1 [Compound 13] | > 10 µM | > 10 µM |  |  |  | 0.516 nM
10 | N=C(N)c1ccc(CNC(=O)c2cnn(Cc3cn4cc(C5CC5)ccc4n3)c2)cc1 [Compound 15] | > 10 µM | > 10 µM | 0.898 nM |  |  | 
11 | CCc1cc(N2CC3C(C2)C3(F)F)ccc1Cn1cc(C(=O)NCc2ccc(C(=N)N)cc2)cn1 (stereo not drawn) [Compound 16] | > 10 µM | > 10 µM | 1.24 nM |  |  | 
12 | Cc1cc(N)nc(C)c1CNC(=O)c1ncn(Cc2c(F)c(F)c(Cn3ccccc3=O)c(F)c2F)n1 [Compound 22] | > 10 µM | > 10 µM | 0.63 nM |  |  | 
13 | COCc1nn(Cc2ccc(Cn3cc(F)ccc3=O)cc2)cc1C(=O)NCc1c(C)cc(N)nc1C [Compound 24] | > 10 µM | > 10 µM | 0.175 nM |  |  | 
14 | Cc1nc(N)ccc1CNC(=O)c1ncn(Cc2ccc(Cn3ccccc3=O)cc2)n1 [Compound 27] | > 10 µM | > 10 µM | 1.48 nM |  |  | 
15 | COCc1nn(Cc2c(F)c(F)c(Cn3ccccc3=O)c(F)c2F)cc1C(=O)NCc1c(C)cc(N)nc1C [Compound 28] |  | > 10 µM | 2.33 nM | > 0.5 µM |  | 
16 | Cn1cnc2c1CC[C@H]2NC(=O)c1cn(Cc2cn3cc(C4CC4)ccc3n2)nn1 [Compound 35] | > 10 µM | > 10 µM | 1.65 nM |  |  | 

Now from value to compound, other results behind:

Row | IC50 (KLK1; values given in µM) | IC50 (FXIa; values given in µM) | IC50 (plasma kallikrein (PKa); [1]) | IC50 (KLK1; values in nM) | IC50 (FXIa; values in nM) | SMILES | IC50 (plasma kallikrein (PKa); PKa IC50, plasma kallikrein enzyme assay)
17 | > 10 µM | > 10 µM | 0.46 nM |  |  | N#Cc1cc(N2CC3C(C2)C3(F)F)ccc1Cn1cnc(C(=O)NC2CCc3cc(N)ncc32)n1 (single isomer, unassigned) [Compound 54] | 
18 | > 10 µM | > 10 µM | 0.92 nM |  |  | N#Cc1cc(N2CC3C(C2)C3(F)F)ccc1Cn1cnc(C(=O)NCc2ccc3c(N)nccc3c2)n1 (stereo not drawn) [Compound 43] | 
19 | > 10 µM | > 10 µM | 0.39 nM |  |  | Cc1cc(N)nc(C)c1CNC(=O)c1nnc(Cc2ccc(Cn3ccccc3=O)cc2)[nH]1 [Compound 44] | 
20 | > 10 µM | > 10 µM | 0.18 nM |  |  | Cc1cc(N)nc(C)c1CNC(=O)c1ncn(Cc2cn3cc(C4CC4)ccc3n2)n1 [Compound 47] | 
21 | > 10 µM | > 10 µM | 0.38 nM |  |  | Cc1cc(N)nc(C)c1CNC(=O)c1noc(Cc2ccc(Cn3ccccc3=O)cc2)n1 [Compound 48] | 
22 | > 10 µM | > 10 µM | 2.78 nM |  |  | COCc1nn(Cc2c(F)c(F)c(Cn3cc(F)ccc3=O)c(F)c2F)cc1C(=O)NCc1c(C)cc(N)nc1C [Compound 49] | 
23 | > 10 µM | > 10 µM | 0.89 nM |  |  | Cc1cc(N)nc(C)c1CNC(=O)c1ncn(C(C)c2ccc(Cn3ccccc3=O)cc2)n1 (stereo not drawn) [Compound 50] | 
24 | > 10 µM | > 10 µM | 0.16 nM |  |  | Cc1cc(N)nc(C)c1CNC(=O)c1nnn(Cc2ccc(Cn3ccccc3=O)cc2)n1 [Compound 55] | 
25 | > 10 µM | > 10 µM | 0.16 nM |  |  | Cc1cc(N)nc(C)c1CNC(=O)c1ncn(Cc2ccc(Cn3cccc(C)c3=O)cc2)n1 [Compound 56] | 
26 | > 10 µM | > 10 µM | 0.65 nM |  |  | COCc1cn(Cc2ccc(Cn3ccccc3=O)cc2)nc1C(=O)NCc1c(C)cc(N)nc1C [Compound 60] | 
27 | > 10 µM | > 10 µM | 0.12 nM |  |  | Cc1cc(N)nc(C)c1CNC(=O)c1ccn(Cc2ccc(Cn3ccccc3=O)cc2)c1 [Compound 61] | 
28 | > 10 µM | > 10 µM | 0.12 nM |  |  | Cc1cc(N)nc(C)c1CNC(=O)c1cc(Cc2ccc(Cn3ccccc3=O)cc2)cn1C [Compound 62] | 
29 | > 10 µM | > 10 µM | 2.99 nM |  |  | Cc1cc(N)nc(C)c1CNC(=O)c1cn(Cc2ccc(CN3CCOCC3=O)cc2)nc1C(F)F [Compound 64] | 
30 | > 10 µM | > 10 µM | 0.29 nM |  |  | Cc1cc(N)nc(C)c1CNC(=O)c1nsc(Cc2ccc(Cn3ccccc3=O)cc2)n1 [Compound 67] | 
31 | > 10 µM | > 10 µM | 0.32 nM |  |  | Cc1cc(N)nc(C)c1CNC(=O)c1csc(Cc2ccc(Cn3ccccc3=O)cc2)n1 [Compound 68] | 
32 | > 10 µM | > 10 µM |  |  |  | N#Cc1cc(N2CCC(F)(F)CC2)ccc1Cn1cc(C(=O)NCc2ccc(C(=N)N)cc2)cn1 [Compound 158] | 
33 | > 10 µM | > 10 µM |  |  |  | COc1ccnc(CNC(=O)c2cn(Cc3ccc(Cn4ccccc4=O)cc3)nc2-c2c(C)cnn2C)c1F [Compound 221, N-((3-fluoro-4-methoxypyridin-2-yl)methyl)-2',4'-dimethyl-1-(4-((2-oxopyridin-1(2H)yl)methyl)benzyl)-1H,2'H-[3,3'-bispyrazole]-4-carboxamide] | 
34 | > 10 µM | > 10 µM |  |  |  | COCc1nn(Cc2ccc(Cn3ccccc3=O)cc2)cc1C(=O)NCc1nccc(OC)c1F [KVD900, reference compound] | 
